Data as given in publication PMC4718143, “A novel protocol for the one-pot borylation/Suzuki reaction provides easy access to hinge-binding groups for kinase inhibitors” (Organic & Biomolecular Chemistry, 2015).
Read-outs that look alike come from different tables or passages of the source.

What was measured:
Type in all cases: biochemical
[1] = molecular target: T1, RSK1 (Homo sapiens, UniProt Q15418); experiment: ProfilerPro kinase panel, single concentration […]
T1 construct: gene RPS6KA1

[2] = molecular target: T2, AurA (Homo sapiens, UniProt O14965); experiment: ProfilerPro kinase panel, single concentration […]
T2 construct: gene AURKA
T2 sequence (O14965 1-403): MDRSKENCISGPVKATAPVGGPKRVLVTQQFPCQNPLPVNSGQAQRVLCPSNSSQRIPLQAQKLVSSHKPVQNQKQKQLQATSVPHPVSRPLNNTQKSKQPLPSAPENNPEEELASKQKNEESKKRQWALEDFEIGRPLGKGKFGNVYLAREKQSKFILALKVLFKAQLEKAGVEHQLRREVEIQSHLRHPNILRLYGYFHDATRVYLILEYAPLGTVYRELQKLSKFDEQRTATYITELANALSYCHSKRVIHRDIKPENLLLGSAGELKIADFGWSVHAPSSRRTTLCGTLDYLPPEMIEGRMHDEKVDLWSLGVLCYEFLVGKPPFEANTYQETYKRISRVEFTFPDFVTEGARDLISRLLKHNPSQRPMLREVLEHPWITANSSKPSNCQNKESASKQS

[3] = molecular target: T3, CHK2 (Homo sapiens, UniProt O96017); experiment: ProfilerPro kinase panel, single concentration […]
T3 construct: gene CHEK2

[4] = molecular target: T4, PKD2 (Homo sapiens, UniProt Q9BZL6); experiment: ProfilerPro kinase panel, single concentration […]
T4 construct: gene PRKD2
T4 sequence (Q9BZL6 1-878): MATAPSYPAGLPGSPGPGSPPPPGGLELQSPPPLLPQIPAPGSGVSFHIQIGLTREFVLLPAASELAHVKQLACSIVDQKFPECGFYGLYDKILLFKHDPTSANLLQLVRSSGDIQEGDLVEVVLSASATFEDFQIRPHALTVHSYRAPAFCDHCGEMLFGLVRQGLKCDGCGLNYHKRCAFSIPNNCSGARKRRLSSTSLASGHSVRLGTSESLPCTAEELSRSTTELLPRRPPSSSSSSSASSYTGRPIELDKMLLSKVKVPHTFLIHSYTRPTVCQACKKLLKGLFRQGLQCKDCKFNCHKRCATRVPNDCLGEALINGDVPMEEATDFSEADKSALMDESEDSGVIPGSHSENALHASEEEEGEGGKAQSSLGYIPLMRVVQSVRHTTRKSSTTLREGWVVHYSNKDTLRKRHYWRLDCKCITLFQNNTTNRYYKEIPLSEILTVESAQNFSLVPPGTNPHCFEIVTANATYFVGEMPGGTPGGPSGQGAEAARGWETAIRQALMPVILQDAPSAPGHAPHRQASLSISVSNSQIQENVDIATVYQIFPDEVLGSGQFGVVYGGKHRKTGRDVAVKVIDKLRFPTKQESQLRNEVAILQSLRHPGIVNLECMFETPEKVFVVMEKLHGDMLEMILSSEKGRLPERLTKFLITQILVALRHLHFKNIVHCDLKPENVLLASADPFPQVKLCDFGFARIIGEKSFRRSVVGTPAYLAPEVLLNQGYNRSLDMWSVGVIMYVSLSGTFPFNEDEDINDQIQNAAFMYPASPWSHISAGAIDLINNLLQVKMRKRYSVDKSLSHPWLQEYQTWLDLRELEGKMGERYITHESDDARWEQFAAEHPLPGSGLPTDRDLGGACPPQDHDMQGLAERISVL

[5] = molecular target: INSR (Homo sapiens, UniProt P06213); experiment: ProfilerPro kinase panel, single concentration […]
[6] = molecular target: T5, ABL (Homo sapiens, UniProt P00519); experiment: kinase inhibition IC50 (Invitrogen), following ProfilerPro kinase panel ([…] at […])
T5 construct: gene ABL1

[7] = molecular target: T5, ABL; experiment: as above; remark: listed apart in the source

T5 sequence (P00519 whole entry): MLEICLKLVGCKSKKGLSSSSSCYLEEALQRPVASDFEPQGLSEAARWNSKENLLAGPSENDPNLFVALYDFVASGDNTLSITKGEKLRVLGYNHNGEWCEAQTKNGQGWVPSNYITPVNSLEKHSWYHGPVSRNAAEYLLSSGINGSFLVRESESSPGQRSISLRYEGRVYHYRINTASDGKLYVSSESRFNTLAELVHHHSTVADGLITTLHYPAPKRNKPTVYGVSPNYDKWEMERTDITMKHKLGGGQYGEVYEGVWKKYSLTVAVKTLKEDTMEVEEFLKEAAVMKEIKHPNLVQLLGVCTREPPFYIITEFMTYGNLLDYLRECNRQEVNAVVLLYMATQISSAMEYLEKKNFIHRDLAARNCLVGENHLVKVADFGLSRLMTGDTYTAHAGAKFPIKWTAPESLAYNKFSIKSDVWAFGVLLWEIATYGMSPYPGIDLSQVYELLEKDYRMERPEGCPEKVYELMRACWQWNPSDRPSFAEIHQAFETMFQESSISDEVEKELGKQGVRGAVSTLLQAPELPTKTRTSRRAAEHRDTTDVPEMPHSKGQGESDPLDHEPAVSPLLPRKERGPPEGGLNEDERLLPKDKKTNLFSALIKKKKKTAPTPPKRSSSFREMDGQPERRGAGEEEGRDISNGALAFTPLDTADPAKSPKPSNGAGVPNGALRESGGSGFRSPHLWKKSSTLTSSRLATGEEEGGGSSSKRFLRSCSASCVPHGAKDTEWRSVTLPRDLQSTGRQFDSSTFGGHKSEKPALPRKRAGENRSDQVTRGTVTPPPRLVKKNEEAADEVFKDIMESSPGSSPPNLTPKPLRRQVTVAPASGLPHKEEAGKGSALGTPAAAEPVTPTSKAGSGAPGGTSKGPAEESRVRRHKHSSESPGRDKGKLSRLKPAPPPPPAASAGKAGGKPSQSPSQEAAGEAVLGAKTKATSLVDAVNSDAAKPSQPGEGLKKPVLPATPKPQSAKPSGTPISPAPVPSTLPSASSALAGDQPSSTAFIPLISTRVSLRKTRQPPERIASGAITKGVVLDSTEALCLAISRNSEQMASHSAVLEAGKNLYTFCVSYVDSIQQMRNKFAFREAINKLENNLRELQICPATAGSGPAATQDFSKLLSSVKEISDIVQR
Chain of INSR (P06213 28-758): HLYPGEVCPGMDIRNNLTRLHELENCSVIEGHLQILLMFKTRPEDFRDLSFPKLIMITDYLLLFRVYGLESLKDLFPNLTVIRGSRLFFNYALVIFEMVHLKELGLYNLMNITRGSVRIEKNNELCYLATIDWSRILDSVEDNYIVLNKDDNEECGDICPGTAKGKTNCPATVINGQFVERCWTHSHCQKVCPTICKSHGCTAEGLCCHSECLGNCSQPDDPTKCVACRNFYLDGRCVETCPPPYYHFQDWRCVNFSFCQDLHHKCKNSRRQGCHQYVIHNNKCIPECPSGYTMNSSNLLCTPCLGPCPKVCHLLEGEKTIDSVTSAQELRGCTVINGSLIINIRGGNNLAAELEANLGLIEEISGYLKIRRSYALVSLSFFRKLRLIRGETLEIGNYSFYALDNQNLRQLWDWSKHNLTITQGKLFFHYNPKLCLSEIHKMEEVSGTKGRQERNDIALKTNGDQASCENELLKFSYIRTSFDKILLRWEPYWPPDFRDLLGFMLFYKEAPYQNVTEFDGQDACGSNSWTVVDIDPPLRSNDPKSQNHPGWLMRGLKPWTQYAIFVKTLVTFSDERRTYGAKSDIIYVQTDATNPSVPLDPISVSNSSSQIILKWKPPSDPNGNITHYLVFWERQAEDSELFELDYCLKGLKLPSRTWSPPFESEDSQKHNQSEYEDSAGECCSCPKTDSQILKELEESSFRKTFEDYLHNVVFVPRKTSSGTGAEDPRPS
Chain of INSR (P06213 763-1382): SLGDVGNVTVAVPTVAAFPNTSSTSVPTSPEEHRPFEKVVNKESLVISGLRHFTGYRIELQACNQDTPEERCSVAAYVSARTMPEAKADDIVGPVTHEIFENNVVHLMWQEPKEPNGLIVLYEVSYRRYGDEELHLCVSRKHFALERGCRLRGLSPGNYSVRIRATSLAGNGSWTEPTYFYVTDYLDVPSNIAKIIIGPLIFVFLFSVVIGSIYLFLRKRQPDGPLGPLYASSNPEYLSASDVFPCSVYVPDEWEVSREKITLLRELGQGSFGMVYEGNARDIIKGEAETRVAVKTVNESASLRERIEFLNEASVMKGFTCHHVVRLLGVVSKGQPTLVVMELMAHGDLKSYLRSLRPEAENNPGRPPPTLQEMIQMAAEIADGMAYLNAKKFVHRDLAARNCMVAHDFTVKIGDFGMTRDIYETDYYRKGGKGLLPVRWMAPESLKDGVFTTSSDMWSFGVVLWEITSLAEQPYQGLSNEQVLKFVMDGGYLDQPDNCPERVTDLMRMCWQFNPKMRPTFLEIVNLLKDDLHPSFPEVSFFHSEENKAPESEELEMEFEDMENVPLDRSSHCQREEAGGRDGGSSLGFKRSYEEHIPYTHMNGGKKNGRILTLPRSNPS
T3 sequence (O96017 whole entry): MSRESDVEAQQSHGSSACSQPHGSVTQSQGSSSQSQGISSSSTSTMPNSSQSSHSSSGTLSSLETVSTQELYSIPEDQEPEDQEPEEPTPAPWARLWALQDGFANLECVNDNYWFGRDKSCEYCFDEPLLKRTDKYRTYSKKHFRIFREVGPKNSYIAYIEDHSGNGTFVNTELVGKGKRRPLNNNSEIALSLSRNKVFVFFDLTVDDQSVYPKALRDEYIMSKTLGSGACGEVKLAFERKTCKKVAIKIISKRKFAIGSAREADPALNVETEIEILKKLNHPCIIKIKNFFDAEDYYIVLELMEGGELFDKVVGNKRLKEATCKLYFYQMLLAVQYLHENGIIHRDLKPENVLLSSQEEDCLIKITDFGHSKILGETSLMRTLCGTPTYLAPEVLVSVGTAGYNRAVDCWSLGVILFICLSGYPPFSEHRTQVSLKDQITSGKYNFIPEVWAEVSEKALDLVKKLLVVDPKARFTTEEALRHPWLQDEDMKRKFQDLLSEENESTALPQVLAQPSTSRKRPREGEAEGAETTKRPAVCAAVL
T1 sequence (Q15418 whole entry): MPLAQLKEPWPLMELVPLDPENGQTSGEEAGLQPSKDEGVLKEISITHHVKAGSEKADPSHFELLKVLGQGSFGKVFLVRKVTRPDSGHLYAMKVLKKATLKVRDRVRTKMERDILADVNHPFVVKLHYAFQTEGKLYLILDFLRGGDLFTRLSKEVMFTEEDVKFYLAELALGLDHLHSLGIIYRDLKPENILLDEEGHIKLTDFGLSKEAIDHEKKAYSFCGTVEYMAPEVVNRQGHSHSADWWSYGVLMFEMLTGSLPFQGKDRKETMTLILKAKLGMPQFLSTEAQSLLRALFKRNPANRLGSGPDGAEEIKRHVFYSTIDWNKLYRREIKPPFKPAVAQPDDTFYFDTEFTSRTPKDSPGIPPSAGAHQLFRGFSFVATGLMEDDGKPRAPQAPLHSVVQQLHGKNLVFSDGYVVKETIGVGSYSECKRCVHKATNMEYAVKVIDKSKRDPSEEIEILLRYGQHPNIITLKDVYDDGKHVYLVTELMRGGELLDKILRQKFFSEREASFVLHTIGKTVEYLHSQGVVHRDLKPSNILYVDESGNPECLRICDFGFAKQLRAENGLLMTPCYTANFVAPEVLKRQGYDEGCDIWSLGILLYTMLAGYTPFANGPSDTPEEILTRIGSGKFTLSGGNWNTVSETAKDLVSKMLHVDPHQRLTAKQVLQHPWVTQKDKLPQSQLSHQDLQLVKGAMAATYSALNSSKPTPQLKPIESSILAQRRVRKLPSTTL

SMILES: Clc1ccc(-c2cnc3[nH]ccc3c2)cc1 [4j]
- inhibition at 300 µM [1]: 91%

SMILES: c1ccc(-c2cnc3[nH]ccc3c2)cc1 [4n]
- inhibition at 300 µM [2]: 99%
- inhibition at 300 µM [3]: 91%
- inhibition at 300 µM [4]: 92%
- inhibition at 300 µM [5]: 93%

SMILES: c1ccc(-c2ccc3ncccc3c2)cc1 [4o]
- IC50 [6]: 8.11 µM

SMILES: Clc1ccnc2ccc(-c3ccccc3)cc12 [4p]
- IC50 [7]: 19.2 µM
